Holding throughout (assay type): in vivo
The subject of assay [1] is Drosophila larvae expressing D169G TDP-43 in motor neurons. Description: Drug screen: rescue of lethality caused by D169G TDP-43 expression in motor neurons (D42 Gal4). The note with it: transgene D169G; 50 μM in fly food. How it is done:
(§1) 1200 FDA approved drugs from the Prestwick collection were fed to flies expressing TDP-43 at an initial concentration of 50 μM (as previously described in Chang et al., 2008).
(§2) FDA approved drugs from the Prestwick collection (200 mM in DMSO) are mixed with yeast-cornmeal based food and a bromophenol blue (as a mixing indicator) at a final concentration of 50 μM. Larvae expressing TDP-43 (wild type or mutant, as shown) are raised on drug containing food.
(§3) FDA approved drugs from the Prestwick collection (200 mM in DMSO) were mixed with yeast-cornmeal based food and a bromophenol blue (as a mixing indicator) at a final concentration of 50 μM. Larvae expressing TDP-43 (wt or mutant) were raised on drug containing food.
(§4) Using a Drosophila model of ALS based on TDP-43 that recapitulates several aspects of the disease pathophysiology (33, 35), a drug screen aimed at identifying FDA approved compounds with neuroprotective potential in vivo were designed (FIG. 37A). […] This phenotype was used to screen for drug candidates with therapeutic potential as determined by their ability to rescue pupal lethality and produce viable adults with extended wings (FIG. 37A).

Assay [2] has as its system Drosophila larvae expressing G298S TDP-43 in motor neurons. Description: Drug screen: rescue of lethality caused by G298S TDP-43 expression in motor neurons (D42 Gal4). The conditions noted are these: transgene G298S.
Excerpt: […] Larvae expressing TDP-43 (wild type or mutant, as shown) are raised on drug containing food.
[…] Larvae expressing TDP-43 (wt or mutant) were raised on drug containing food.
as §4
Larvae expressing TDP-43 in motor neurons (D42>TDP-43) were raised on fly food containing different amounts of drug (1, 10 and 25 μM, see Materials and Methods for details) or Dimethyl Sulfoxide (DMSO) as vehicle control (FIG. 37B, C).
UAS TDP-43 males were crossed with D42-Gal4 female virgins on fly food containing either DMSO or pioglitazone. For DMSO controls, the same volume of DMSO as the corresponding drug concentration was added. Bromophenol blue was added to a final concentration of approximately 0.02% to ensure homogeneity. Crosses were made on drug food with 3 female virgins and 2 males in each vial, and were maintained at 25° C. unless noted. The parents were discarded after 5-7 days then the vials were screened for adult progeny with straight wings from day 14 to day 25. All adults were screened for TDP-43 expression by visualizing the YFP tag. Total number of pupae was counted on day 25. Percent survival was calculated using the formula (total number of straight-winged adults/total number of pupae)×100. All experiments were performed in triplicate.

Assay [3] deals with Drosophila larvae expressing D169G TDP-43 in motor neurons. Description: Drug screen: rescue of lethality caused by D169G TDP-43 expression in motor neurons (D42 Gal4). The note with it: transgene D169G; 30 μM in fly food.
For assay [4], the system named is Drosophila larvae expressing N345K TDP-43 in motor neurons. Description: Drug screen: rescue of lethality caused by N345K TDP-43 expression in motor neurons (D42 Gal4). The conditions noted are these: transgene N345K; 50 μM in fly food. The protocol:
A drug screen aimed at rescuing the adult lethality caused by wild-type or mutant TDP-43 (D169G, G298S, A315T and N345K) overexpression in motor neurons has been performed (FIG. 11). 1200 FDA approved drugs from the Prestwick collection were fed to flies expressing TDP-43 at an initial concentration of 50 μM (as previously described in Chang et al., 2008). This screening strategy has several advantages including: (1) it is performed in vivo, (2) it is based on a robust phenotype (100% adult lethality), (3) it can lead to rapid identification of drugs that are already approved for use in humans and (4) it can inform the future development of small molecules with enhanced neuroprotective capabilities.
FDA approved drugs from the Prestwick collection (200 mM in DMSO) are mixed with yeast-cornmeal based food and a bromophenol blue (as a mixing indicator) at a final concentration of 50 μM. Larvae expressing TDP-43 (wild type or mutant, as shown) are raised on drug containing food. In the absence of drugs, TDP-43 expression is lethal at the pupal/pharate stage. Drugs that rescued TDP-43 Induced Lethality (anywhere from 1-12 adults) were considered as candidates for future studies.
FDA approved drugs from the Prestwick collection (200 mM in DMSO) were mixed with yeast-cornmeal based food and a bromophenol blue (as a mixing indicator) at a final concentration of 50 μM. Larvae expressing TDP-43 (wt or mutant) were raised on drug containing food. In the absence of drugs, TDP-43 expression was lethal at the pupal/pharate stage. Drugs that rescue TDP-43 induced lethality (anywhere from 1-12 adults) were considered as candidates for future studies.
Using a Drosophila model of ALS based on TDP-43 that recapitulates several aspects of the disease pathophysiology (33, 35), a drug screen aimed at identifying FDA approved compounds with neuroprotective potential in vivo were designed (FIG. 37A). […] This phenotype was used to screen for drug candidates with therapeutic potential as determined by their ability to rescue pupal lethality and produce viable adults with extended wings (FIG. 37A). […]

For assay [5], the system named is Drosophila larvae expressing wild-type TDP-43 in motor neurons. Description: Drug screen: rescue of lethality caused by wild-type TDP-43 expression in motor neurons (D42 Gal4). The note with it: transgene WT2.
The subject of assay [6] is Drosophila larvae expressing A315T TDP-43 in motor neurons. Description: Drug screen: rescue of lethality caused by A315T TDP-43 expression in motor neurons (D42 Gal4). The note with it: transgene A315T; 50 μM in fly food. How it is done: as §1, §2, §3, §4

Counter-ions that a name gives are not always drawn.

As to `CC(=O)NCCCS(=O)(=O)[O-].CC(=O)NCCCS(=O)(=O)[O-].[Ca+2]` [Acamprosate Calcium], in assay [1], the “Preliminary rescue result: adults with normal wings” value (shortened to “Preliminary rescue result: adults”) is on record as 1 Adult Normal Wings Adults.
Regarding `CC(=O)N[C@@H](CS)C(=O)O` [Acetylcysteine], the “Preliminary rescue result: adults” value in assay [2] (30 μM in fly food) and in assay [3] was 1 Adults in each case.
In the case of `CN1C(=O)CCS(=O)(=O)C1c1ccc(Cl)cc1` (stereo not shown) [Chlormezanone], in assay [4], the “Preliminary rescue result: adults” value was found to be 1 Adult Normal Wings Adults.
For the compound `Oc1c(Cl)cc(Cl)c2cccnc12` [Chloroxine], in assay [1], the “Preliminary rescue result: adults” value turned out to be 1 Adult Normal Wings Adults.
Still for that read-out and setting: with `CCOC(=O)C(C)(C)Oc1ccc(Cl)cc1` [Clofibrate] the figure was 1 Adult Normal Wings Adults.
Still for that read-out and setting: the result for `CN(C)CCC=C1c2ccccc2C=Cc2ccccc21` [Cyclobenzaprine HCl] reads 1 Adult Normal Wings Adults.
For `N#CC(c1ccc(Cl)cc1)c1c(Cl)cc(-n2ncc(=O)[nH]c2=O)cc1Cl` (stereo not shown) [Diclazuril], the “Preliminary rescue result: adults” value in assay [2] (30 μM in fly food) is on record as 1 Adults; in assay [5] (30 μM in fly food), 2 Adults.
On to `CN1CCN(c2c(F)cc3c(=O)c(C(=O)O)cn(CCF)c3c2F)CC1` [Fleroxacin], for which the entries for the “Preliminary rescue result: adults” value in assay [2] (30 μM in fly food) and in assay [5] (30 μM in fly food) were 1 Adults and 3 Adults, respectively.
On to `COc1ccc(-c2ccc(=N)n(CCCC(=O)O)n2)cc1` [Gabazine], for which the results for the “Preliminary rescue result: adults” value in assay [2] (50 μM in fly food) and in assay [5] (50 μM in fly food) were 2 Adults Straight Wings and 4 Adults Normal Wings,, respectively.
As to `CN1CCCN(C(c2ccccc2)c2ccc(Cl)cc2)CC1` (stereo not shown) [Homochlorcyclizine], the “Preliminary rescue result: adults” value was 1 Adult Normal Wings Adults in assay [6] and 3 Adults Normal Wings, in assay [5] (50 μM in fly food).
As for `CCOC(=O)C1=C(C)NC(C)=C(C(=O)OCC)C1c1ccccc1/C=C/C(=O)OC(C)(C)C` [Lacidipine], the “Preliminary rescue result: adults” value in assay [2] (50 μM in fly food) turned out to be 7 Adults; in assay [5] (50 μM in fly food), 3 Adults.
Turning to `CC[C@@H](C(N)=O)N1CCCC1=O` [Levetiracetam], the “Preliminary rescue result: adults” value in assay [6] was determined as 3 Adult Normal Wings Adults.
Regarding `Cc1cccc(CN2CCN(C(c3ccccc3)c3ccc(Cl)cc3)CC2)c1` (stereo not shown) [Meclozine Dihcl], the “Preliminary rescue result: adults” value in assay [1] was found to be 6 Adults Normal Wings.
Take `CCC1(c2cccc(O)c2)CCCCN(C)C1` (stereo not shown) [Meptazinol Hydrochloride]: in assay [2] (30 μM in fly food), the “Preliminary rescue result: adults” value turned out to be 1 Adult Normal Wing Adults.
Turning to `C1N2CN3CN1CN(C2)C3` [Methenamine], the “Preliminary rescue result: adults” value in assay [2] (30 μM in fly food) is listed as 1 Adults; in assay [5] (30 μM in fly food), 2 Adults.
On to `CN(C)c1ccc(O)c2c1C[C@H]1C[C@H]3[C@H](N(C)C)C(O)=C(C(N)=O)C(=O)[C@@]3(O)C(O)=C1C2=O` [Minocycline], for which the “Preliminary rescue result: adults” value in assay [4] amounted to 1 Adult Normal Wings Adults.
Consider `Cc1ccccc1C(OCCN(C)C)c1ccccc1` (stereo not shown) [Orphenadrine], for which the “Preliminary rescue result: adults” value in assay [2] (50 μM in fly food) came out at 1 Adult Normal Wings Adults.
With `CCCC(C)C1(CC)C(=O)NC(=O)NC1=O` (stereo not shown) [Pentobarbital], the “Preliminary rescue result: adults” value in assay [6] is given as 3 Adult Normal Wings Adults.
In the case of `C1CCC(C(CC2CCCCN2)C2CCCCC2)CC1` (stereo not shown) [Perhexiline Maleate], in assay [4], the “Preliminary rescue result: adults” value was 12 Adults.
With `CN(C)CCC(c1ccccc1)c1ccccn1` (stereo not shown) [Pheniramine Maleate], in assay [2] (50 μM in fly food), the “Preliminary rescue result: adults” value is 1 Adult Normal Wings Adults.
For the compound `CCCN(CCC)C(=O)C(CCC(=O)O)NC(=O)c1ccccc1` (stereo not shown) [Proglumide], the “Preliminary rescue result: adults” value is 3 Adults Normal Wings in assay [2] (50 μM in fly food) and 1 Adult Normal Wings, Adults in assay [5] (50 μM in fly food).
Consider `CC(C)NC[C@@H](O)COc1ccc(CC(N)=O)cc1` [R-(+)-Atenolol], for which the results for the “Preliminary rescue result: adults” value in assay [3] and in assay [5] (30 μM in fly food) were 1 Adults and 2 Adults, respectively.
As to `CN(Cc1cc(Br)cc(Br)c1N)C1CCCCC1.Cl` [Romhexine Hydrochloride], the “Preliminary rescue result: adults” value in assay [2] (30 μM in fly food) is 1/2 Adult Normal Wings.
Same read-out and setting: the result for `Cn1c([N+](=O)[O-])cnc1COC(N)=O` [Ronidazole] reads 1 Adult Normal Wings Adults.
For `OCc1cc(C(O)CNCCCCCCOCCCCc2ccccc2)ccc1O` (stereo not shown) [Salmeterol], the “Preliminary rescue result: adults” value in assay [3] and in assay [5] (30 μM in fly food) was 1 Adult Normal Wings × 2 Adults throughout.
For `C[C@]12Cc3c[nH]nc3C[C@@H]1CC[C@@H]1[C@@H]2CC[C@@]2(C)[C@H]1CC[C@]2(C)O` [Stanozolol], the “Preliminary rescue result: adults” value in assay [1] is listed as 3 Adult Normal Wings Adults.
On to `CCCCNc1ccc(C(=O)OCCN(C)C)cc1` [Tetracaine Hydrochloride], for which the “Preliminary rescue result: adults” value in assay [6] was found to be 2 Adult Normal Wings Adults.
Same read-out and setting: the result for `Clc1ccc(C(Cn2ccnc2)OCc2ccsc2Cl)c(Cl)c1` (stereo not shown) [Tioconazole] reads 2 Adults Normal Wings.
For `O=c1n(CCCN2CCN(c3cccc(Cl)c3)CC2)nc2ccccn12` [Trazodone], the “Preliminary rescue result: adults” value in assay [2] (50 μM in fly food) is recorded as 1 Adult Normal Wings Adults.
Take `CCCC(CCC)C(=O)O` [Valproic Acid]: the figures for the “Preliminary rescue result: adults” value in assay [2] (30 μM in fly food) and in assay [5] (30 μM in fly food) were 1 Adults and 2 Adults, respectively.
Turning to `Clc1ccc(Nc2nnc(Cc3ccncc3)c3ccccc23)cc1` [Vatalanib], the “Preliminary rescue result: adults” value in assay [1] is listed as 1 Adult Normal Wings Adults.
Consider `COc1ccc(C(CN(C)C)C2(O)CCCCC2)cc1` (stereo not shown) [Venlafaxine], for which, in assay [2] (50 μM in fly food), the “Preliminary rescue result: adults” value is 1 Adult Normal Wings Adults.
Take `O=C(NCCNCC(O)COc1ccc(O)cc1)N1CCOCC1.O=C(NCCNCC(O)COc1ccc(O)cc1)N1CCOCC1.O=C(O)/C=C/C(=O)O` (stereo not shown) [Xamoterol HemifiμMarate]: the “Preliminary rescue result: adults” value in assay [2] (30 μM in fly food) came out at 1 Adult Normal Wing Adults.
For the compound Pyrantel Tartrate, the “Preliminary rescue result: adults” value in assay [2] (50 μM in fly food) amounted to 1 Adult Normal Wings Adults.
With Tyloxapol, the “Preliminary rescue result: adults” value in assay [3] is reported as 1 Adult Normal Wings Adults.

The values are drawn from US20150143553A1, “Methods And Compositions Comprising A Drosophila Model Of Amyotrophic Lateral Sclerosis” (priority 2013, published 2015).
